Among the data in BindingDB's records for doi:10.7270/Q20863PV (University of Pittsburgh, 2006) are IC50 values, retold here.

A word on the IC50: it is the concentration that inhibits the measured activity by half. Low values mean greater potency in that assay, high ones weaker potency in that assay.

A value given as a limit tells only on which side of the number the result lay.

This assay addresses T1, Dual specificity protein phosphatase 1 (Homo sapiens, UniProt P28562).
T1 sequence (P28562 whole entry): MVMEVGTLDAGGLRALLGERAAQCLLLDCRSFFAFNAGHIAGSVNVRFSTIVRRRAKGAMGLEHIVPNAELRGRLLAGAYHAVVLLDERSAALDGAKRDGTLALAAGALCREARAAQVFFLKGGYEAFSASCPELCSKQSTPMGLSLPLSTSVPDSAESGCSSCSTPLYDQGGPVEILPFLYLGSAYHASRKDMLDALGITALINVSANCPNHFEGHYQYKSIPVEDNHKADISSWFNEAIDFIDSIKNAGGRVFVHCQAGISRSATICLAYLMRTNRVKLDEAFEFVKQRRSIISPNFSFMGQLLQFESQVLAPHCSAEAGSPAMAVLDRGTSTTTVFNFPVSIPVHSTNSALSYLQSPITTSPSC
In words: DTT effect on MKP-1 inhibitor potency – biochemical, DTT added, probe assessment, dose response (AID 558).

Consider `CCOc1ccc(-c2cc3nc(C4CCN(C(=O)OC(C)(C)C)CC4)c(C(=O)O)cn3n2)cc1` [2-(4-ethoxyphenyl)-5-[1-[(2-methylpropan-2-yl)oxy-oxomethyl]-4-piperidinyl]-6-pyrazolo[1,5-a]pyrimidinecarboxylic acid], for which the IC50 was 27.7 µM. In other words, the double-digit micromolar range.
The result for `Cc1nc2c(C(=O)NCCC3=CCCCC3)c[nH]n2c(=O)c1Cl` [6-chloro-N-(2-cyclohex-1-en-1-ylethyl)-7-hydroxy-5-methylpyrazolo[1,5-a]pyrimidine-3-carboxamide] reads 49.9 µM; that for `CCn1nc(-c2ccccc2)nc2c(=O)n(C)c(=O)nc1-2` [1-Ethyl-6-methyl-3-phenyl-1H-pyrimido[5,4-e][1,2,4]triazine-5,7-dione], over 50 µM.
